We go through one molecule from article PMC11153306, “Unraveling the efficacy of verbascoside in thwarting MRSA pathogenicity by targeting sortase A” (Applied Microbiology and Biotechnology, 2024).

For the test, the target named is T1, sortase A (SrtA) (Staphylococcus aureus, UniProt Q2FV99).
T1 construct: 6 × His recombinant SrtA from pET28a::srtA
Description: intrinsic fluorescence quenching (Stern-Volmer, KA); supported by FRET inhibition of purified SrtA (IC50 […]) and reversibility by dilution. It is filed as binding. To be noted: read-out: intrinsic fluorescence quenching (Stern-Volmer, KA); supported by FRET inhibitio (converted). The source says: This indicated a significant interaction between verbascoside and SrtA

T1 sequence (Q2FV99 whole entry): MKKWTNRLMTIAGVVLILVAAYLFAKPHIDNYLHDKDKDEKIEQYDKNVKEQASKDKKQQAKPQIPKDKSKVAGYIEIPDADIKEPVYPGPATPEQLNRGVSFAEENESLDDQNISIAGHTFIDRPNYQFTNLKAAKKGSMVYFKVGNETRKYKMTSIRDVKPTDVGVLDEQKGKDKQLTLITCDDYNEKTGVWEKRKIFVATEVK

Take `C[C@@H]1O[C@@H](O[C@@H]2[C@@H](O)[C@H](OCCc3ccc(O)c(O)c3)O[C@H](CO)[C@H]2OC(=O)/C=C/c2ccc(O)c(O)c2)[C@H](O)[C@H](O)[C@H]1O` [verbascoside]: the Kd is 41 µM.
